Columns and labels:
[1] = system: Normal rat liver; test: reactive oxygen species formation in rat liver infused with DNP; conditions: upon cessation of uncoupling (FIG. 9)
[2] = system: Kaposi's sarcoma and nontumorous oral mucosa tissues; test: microcalorimetric heat output of biopsy specimens; parameters: species or system human; conditions: biopsy specimens in 30 uM DNP
Description: Laboratory studies: EKG, serum electrolytes, renal and liver function tests were normal. Hematocrit was 35.5%, WBC was 9,900 with 81% neutrophils, 4 bands, 11 lymphocytes and 4 monocytes. Platelets were 314,000/mm^3. Viral load was 400,000 copies/ml (Amplicor HIV Monitor test, Roche). A CD4^+ T cell count was quantified by flow cytometry at 250/mm^3. They were antibody positive for hepatitis C. […] Karnofsky score was greater than 70. Normal and tumor tissue biopsies, 3 to 6 mm in diameter, from the oral cavity and anus were obtained. The tissues were equally divided, weighed and placed in 4° C. Ringers lactate solution. Histologically confirmed normal and KS tissues were then subjected to microcalorimetric measurements in a thermal activity monitor (ThermoMetric, Jarfalla, Sweden). Recorded heat output (μW/min) was 8.2-8.5 times greater for the KS sarcoma lesions than nontumorous oral mucosa tissues. Repeat measurements with biopsies specimens in 30 uM DNP increased heat production in tumorous tissues 20.5 times more than nontumorous specimens.

[3] = system: Echinococcus multilocularis; test: DNP with glucagon, hydatid disease of the liver (Example 1); type: in vivo, human
Experimental: Pretreatment protocol: the patient was given 10 mg diazepam by mouth and dressed into a modified wet suit. The wet suit was cut lengthwise at the arms and legs. Velcro strappings were attached at the cuttings for closure, rapid removal or exposure of the limb(s). After placement of monitoring sensors, they were started on IV fluids of 5% dextrose, 0.5 normal saline with 7 meq K^+, infused at an initial rate of 12 cc/kg/hr. Evaporative heat loss from the head was minimized by a plastic shower cap and towels. A 401AC temperature probe (YSI Incorporated, Yellow Springs, Ohio) was inserted 11 cm. into the rectum. […] A TEEM 100 Metabolic Analysis System (AeroSport Inc., Ann Arbor, Mich.), with a modified face mask and oxygen delivery system (38-40% 02 saturation) for patient comfort and increased accuracy, was attached to the patient. Oxygen consumption (V02), carbon dioxide production (VC02), expired air volume (VE), heart rate (HR), and Kcal of heat produced were measured in 20 second intervals and extrapolated to minute or hourly rates.
Treatment procedure: After baseline recordings of 10 minutes, the required amount of DNP to raise the initial V02 to achieve a temperature in the patient of 40° C. was calculated as described under “DNP dosage required to increase V02”. The patient was given an initial dose of 1 mg/kg of DNP, infused intravenously over a 3 minute period. […]

[4] = system: peritoneal carcinomatosis, undifferentiated adenocarcinoma; test: DNP with vasopressor and chemotherapy, peritoneal carcinomatosis (Example 4); type: in vivo, human
Description: It was elected to treat the patient with hyperthermochemotherapy. Treatment consisted of DNP, and combination chemotherapy with carboplatin, mitomycin, and doxifluridine. An α-1 adrenergic receptor agonist was used to minimize peripheral vascular dilation and heat loss.
Pretreatment protocol: the patient was transfused with three units of packed red blood cells. A Foley catheter was inserted on each day of treatment. They were covered in a water soaked blanket containing a polyethylene lining. A shower cap with towels was used to prevent heat loss from the head. Intravenous lines were placed into both arms with 19 gauge intracaths. EKG, heart rate, rectal thermistor, and V02 monitors were attached. Oxygen supplemented facemask and equipment was attached and data monitored as previously described under Example 1.
Treatment protocol: the patient was given chemotherapy […]. The total doses of carboplatin, and mitomycin were 450 mg and 24 mg IV respectively on day 1 and last day of week 6. Doxifluridine, 600 mg, was orally administered every day for 5 days and repeated the last 5 days of week 6. On the day of DNP infusion, baseline recordings were established for 10 minutes. Mephenteramine sulfate, 30 mg, was given by intramuscular injection. Ten minutes later their heart rate increased to 96 and […] V02 increased from 250 to 320 cc/min. V02, heart rate and blood pressure stabilized after 20 minutes and they were given an initial dose of 1 mg/kg DNP. Additional 0.5 mg/kg infusions of DNP were administered in 3 successive infusions spaced 20 minutes apart. […] The DNP treatment protocol was repeated every fourth day for a period of 6 weeks.

[5] = system: hepatic ischemic injury; test: hepatic ischemic injury by Pringle's maneuver after DNP pretreatment; type: in vivo; conditions: Pringle's maneuver (FIG. 22)
Description: This method of DNP induced preconditioning could be used to decrease intimal thickening and restenosis after angioplasty, improve ischemia/reperfusion injury in organ and tissue transplantation, and improve surgical outcome of procedures that require temporary or prolonged occlusion of arterial blood flow.

[6] = man and animals accidentally intoxicated; cited from earlier work
[7] = system: tumors and normal fibroblasts; conditions: many tumors and normal fibroblasts treated with DNP; cited from earlier work

O=[N+]([O-])c1ccc(O)c([N+](=O)[O-])c1 [DNP, 2,4-dinitrophenol]
formation of reactive oxygen species [1]: threefold
heat production in tumorous tissues versus nontumorous specimens [2]: 20.5 times
serial imaging of hepatic and bone cysts ([3]; 2 and 4 weeks post treatment): hepatic and bone cyst shrinkage with increased density
magnetic resonance imaging of cysts ([3]; 4 months): complete cyst disappearance in the liver and bone
magnetic resonance imaging and echo of the abdomen ([4]; after combined treatments): complete resolution of peritoneal metastasis
ascites ([4]; end of the sixth week, DNP with carboplatin, mitomycin, doxifluridine): resolved
survival ([4]; nine and a half months after treatment): alive without any evidence of tumor reoccurrence
serum levels of amylase and all tumor markers ([4]; week 6, combined treatments): normal at week 6
effect of DNP pretreatment before hepatic ischemic injury [5]: protective effect
hyperthermia [6]: up to 49 °C
increase in heat production [7]: 83%
increase in oxygen consumption [7]: 36%
